The values that follow come from US8883766B2, “Ion channel modulators and methods of use” (Vertex Pharmaceuticals Incorporated, priority 2007, dated 2014).

Usually IC50 stands for the concentration needed to halve the response being measured.

The assay addresses T1, NaV1.3 (Homo sapiens, UniProt Q9NY46).
T1 construct: expressed in transfected cells
Kind of assay: VIPR optical membrane potential assay with electrical stimulation, HEK293 cells stably expressing NaV1.3. The class given is cell-based. To be noted: compound activity for the NaV1.3 receptors. Here is the method: Compounds of the invention are useful as antagonists of voltage-gated sodium ion channels. Antagonist properties of test compounds were assessed as follows. Cells expressing the NaV of interest were placed into microtiter plates. After an incubation period, the cells were stained with fluorescent dyes sensitive to the transmembrane potential. The test compounds were added to the microtiter plate. The cells were stimulated with either chemical or electrical means to evoke a NaV dependent membrane potential change from unblocked channels, which was detected and measured with trans-membrane potential-sensitive dyes. Antagonists were detected as a decreased membrane potential response to the stimulus. The optical membrane potential assay utilized voltage-sensitive FRET sensors described by Gonzalez and Tsien (See, Gonzalez, J. E. and R. Y. Tsien (1995) “Voltage sensing by fluorescence resonance energy transfer in single cells” Biophys J 69(4): 1272-80, and Gonzalez, J. E. and R. Y. Tsien (1997) “Improved indicators of cell membrane potential that use fluorescence resonance energy transfer” Chem Biol 4(4): 269-77) in combination with instrumentation for measuring fluorescence changes such as the Voltage/Ion Probe Reader (VIPR®) (See, Gonzalez, J. E., K. Oades, et al. (1999) “Cell-based assays and instrumentation for screening ion-channel targets” Drug Discov Today 4(9): 431-439).
The following is an example of how NaV1.3 inhibition activity is measured using the optical membrane potential method #2. Other subtypes are performed in an analogous mode in a cell line expressing the NaV of interest.
HEK293 cells stably expressing NaV1.3 are plated into 96-well microtiter plates. After an appropriate incubation period, the cells are stained with the voltage sensitive dyes CC2-DMPE/DiSBAC2(3) as follows.
2×CC2-DMPE=20 μM CC2-DMPE: 10 mM CC2-DMPE is vortexed with an equivalent volume of 10% pluronic, followed by vortexing in required amount of HBSS containing 10 mM HEPES. Each cell plate will require 5 mL of 2×CC2-DMPE. 50 μL of 2×CC2-DMPE is added to wells containing washed cells, resulting in a 10 μM final staining concentration. The cells are stained for 30 minutes in the dark at RT.
2×DISBAC2(3) with ABSC1=6 μM DISBAC2(3) and 1 mM ABSC1: The required amount of 10 mM DISBAC2(3) is added to a 50 ml conical tube and mixed with 1 μL 10% pluronic for each mL of solution to be made and vortexed together. Then HBSS/HEPES is added to make up 2× solution. Finally, the ABSC1 is added.
The 2×DiSBAC2(3) solution can be used to solvate compound plates. Note that compound plates are made at 2× drug concentration. Wash stained plate again, leaving residual volume of 50 μL. Add 50 μL/well of the 2×DiSBAC2(3) w/ ABSC1. Stain for 30 minutes in the dark at RT.
The electrical stimulation instrument and methods of use are described in ION Channel Assay Methods PCT/US01/21652, herein incorporated by reference. The instrument comprises a microtiter plate handler, an optical system for exciting the coumarin dye while simultaneously recording the coumarin and oxonol emissions, a waveform generator, a current- or voltage-controlled amplifier, and a device for inserting electrodes in well. Under integrated computer control, this instrument passes user-programmed electrical stimulus protocols to cells within the wells of the microtiter plate.
Use the current-controlled amplifier to deliver stimulation wave pulses for 3 s. Two seconds of pre-stimulus recording are performed to obtain the un-stimulated intensities. Five seconds of post-stimulation recording are performed to examine the relaxation to the resting state.
Data are analyzed and reported as normalized ratios of background-subtracted emission intensities measured in the 460 nm and 580 nm channels. Background intensities are then subtracted from each assay channel. […]

T1 sequence (Q9NY46 whole entry): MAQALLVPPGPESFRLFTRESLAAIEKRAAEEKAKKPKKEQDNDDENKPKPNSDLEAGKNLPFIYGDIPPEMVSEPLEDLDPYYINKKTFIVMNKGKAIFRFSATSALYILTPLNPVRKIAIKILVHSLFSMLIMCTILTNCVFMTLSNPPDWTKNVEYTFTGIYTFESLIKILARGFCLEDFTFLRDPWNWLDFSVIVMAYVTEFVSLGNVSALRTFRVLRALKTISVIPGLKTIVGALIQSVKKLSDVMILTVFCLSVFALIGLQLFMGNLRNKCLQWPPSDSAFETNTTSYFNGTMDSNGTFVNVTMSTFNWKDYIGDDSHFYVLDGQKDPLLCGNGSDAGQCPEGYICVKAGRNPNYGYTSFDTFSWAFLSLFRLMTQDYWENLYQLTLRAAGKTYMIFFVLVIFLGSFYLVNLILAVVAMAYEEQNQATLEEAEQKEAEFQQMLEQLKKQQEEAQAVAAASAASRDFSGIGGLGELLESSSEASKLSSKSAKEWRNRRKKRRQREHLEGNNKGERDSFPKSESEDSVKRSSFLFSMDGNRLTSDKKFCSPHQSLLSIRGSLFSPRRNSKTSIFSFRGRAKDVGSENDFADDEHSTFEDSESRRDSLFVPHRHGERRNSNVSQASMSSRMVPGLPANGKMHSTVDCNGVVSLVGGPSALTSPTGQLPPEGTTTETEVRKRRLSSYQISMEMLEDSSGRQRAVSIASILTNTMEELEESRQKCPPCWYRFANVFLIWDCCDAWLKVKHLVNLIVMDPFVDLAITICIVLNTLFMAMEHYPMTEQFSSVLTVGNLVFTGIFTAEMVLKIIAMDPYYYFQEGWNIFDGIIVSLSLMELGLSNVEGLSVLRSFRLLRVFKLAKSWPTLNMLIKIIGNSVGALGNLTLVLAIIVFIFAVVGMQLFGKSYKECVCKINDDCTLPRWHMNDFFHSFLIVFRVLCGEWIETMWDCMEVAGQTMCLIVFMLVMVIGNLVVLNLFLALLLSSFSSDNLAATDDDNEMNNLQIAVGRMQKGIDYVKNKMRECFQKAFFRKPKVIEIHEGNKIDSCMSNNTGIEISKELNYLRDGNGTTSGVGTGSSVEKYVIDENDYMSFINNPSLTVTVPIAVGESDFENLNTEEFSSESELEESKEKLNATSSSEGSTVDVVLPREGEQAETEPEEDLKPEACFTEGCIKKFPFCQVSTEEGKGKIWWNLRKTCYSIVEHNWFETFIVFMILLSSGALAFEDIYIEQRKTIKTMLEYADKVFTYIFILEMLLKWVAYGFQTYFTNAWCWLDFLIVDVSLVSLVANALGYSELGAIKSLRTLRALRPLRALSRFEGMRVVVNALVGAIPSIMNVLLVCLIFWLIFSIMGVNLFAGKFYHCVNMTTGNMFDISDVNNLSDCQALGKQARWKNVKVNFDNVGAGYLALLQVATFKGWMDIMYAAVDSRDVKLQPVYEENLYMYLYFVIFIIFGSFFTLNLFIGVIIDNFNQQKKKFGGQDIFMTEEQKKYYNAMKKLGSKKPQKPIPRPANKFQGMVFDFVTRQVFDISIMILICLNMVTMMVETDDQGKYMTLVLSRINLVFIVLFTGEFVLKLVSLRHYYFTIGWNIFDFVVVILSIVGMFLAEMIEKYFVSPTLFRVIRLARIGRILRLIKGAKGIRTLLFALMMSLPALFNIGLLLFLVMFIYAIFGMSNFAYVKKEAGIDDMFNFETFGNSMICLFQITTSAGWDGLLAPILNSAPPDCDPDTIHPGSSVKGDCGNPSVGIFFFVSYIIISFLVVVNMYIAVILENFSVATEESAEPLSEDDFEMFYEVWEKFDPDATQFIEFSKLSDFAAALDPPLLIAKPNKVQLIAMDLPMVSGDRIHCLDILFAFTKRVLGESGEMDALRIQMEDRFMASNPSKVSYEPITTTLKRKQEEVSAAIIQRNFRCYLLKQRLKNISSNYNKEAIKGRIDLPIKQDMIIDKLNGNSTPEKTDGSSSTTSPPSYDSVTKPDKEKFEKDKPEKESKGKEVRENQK

Regarding `COC(=O)NS(=O)(=O)c1ccc(NC(=O)[C@H](C(C)C)N2CCCc3cc(Cl)ccc32)cc1` [Compound 24], the IC50 was over 5 µM.

Take `COC(=O)NS(=O)(=O)c1ccc(NC(=O)[C@H](C)n2ccc3ccc(C(F)(F)F)cc32)cc1` [Compound 25]: the IC50 is over 5 µM.

In the case of `COC(=O)NS(=O)(=O)c1ccc(NC(=O)Cn2ccc3cc(Cl)ccc32)cc1` [Compound 26], the IC50 is over 5 µM.

As for `COC(=O)NS(=O)(=O)c1ccc(NC(=O)Cn2ccc3cc(F)ccc32)cc1` [Compound 27], the IC50 is over 5 µM.

On to `COC(=O)NS(=O)(=O)c1ccc(NC(=O)Cn2ccc3cccc(Cl)c32)cc1` [Compound 28], for which the IC50 is over 5 µM.

As to `C[C@H](C(=O)Nc1ccc(S(=O)(=O)NC(=O)Oc2ccc(F)cc2)cc1)n1ccc2c(F)cccc21` [Compound 29], the IC50 was over 5 µM.

Consider `COC(=O)NS(=O)(=O)c1ccc(NC(=O)NCc2ccc(Cl)c(Cl)c2)cc1` [Compound 30, methyl 4-(3(3,4-dichlorobenzyl)ureido)phenylsulfonylcarbamate], for which the IC50 was over 5 µM.

In the case of `CNC(=O)NS(=O)(=O)c1ccc(NC(=O)[C@@H](C)n2ccc3c(F)cccc32)cc1` [Compound 31, (R)-2-(4-fluoro-1H indol-1-yl)-N-(4-(N-(methylcarbamoyl)sulfamoyl)phenyl)propanamide], the concentration for half-maximal inhibition (IC50) is over 5 µM.

On to `COC(=O)NS(=O)(=O)c1ccc(C2CCN(C(=O)Cn3ccc4ccc(Cl)cc43)CC2)cc1` [Compound 32], for which the concentration for half-maximal inhibition (IC50) is over 5 µM.

Regarding `COC(=O)NS(=O)(=O)c1ccc(NC(=O)Cn2c(C)cc3cc(Cl)ccc32)cc1` [Compound 33], the concentration for half-maximal inhibition (IC50) is over 5 µM.

In the case of `COC(=O)NS(=O)(=O)c1ccc(NC(=O)[C@@H](C)n2ccc3c(F)cccc32)cc1` [Compound 34], the IC50 is under 2 µM.

In the case of `COC(=O)NS(=O)(=O)c1ccc(NC(=O)C(C)Oc2ccc(Cl)cc2C)cc1` (stereo not shown) [Compound 35], the IC50 is over 5 µM.

As for `COC(=O)NS(=O)(=O)c1ccc(NC(=O)[C@@H](C)n2ccc3cccc(F)c32)cc1` [Compound 36], the concentration for half-maximal inhibition (IC50) is over 5 µM.

As for `COC(=O)NS(=O)(=O)c1ccc(NC(=O)CCCOc2ccc(Cl)cc2Cl)cc1` [Compound 37], the concentration for half-maximal inhibition (IC50) is over 5 µM.

For the molecule `COC(=O)NS(=O)(=O)c1ccc(NC(=O)C2(c3ccc4c(c3)OCO4)CC2)cc1` [Compound 38], the half-maximal inhibitory concentration (IC50) was over 5 µM.

For the molecule `COC(=O)NS(=O)(=O)c1ccc(NC(=O)Cn2ccc3ccc(C(F)(F)F)cc32)cc1` [Compound 39], the IC50 was over 5 µM.

For `COC(=O)NS(=O)(=O)c1ccc(NC(=O)[C@@H](C)n2ccc3ccccc32)cc1` [Compound 40], the IC50 was in the range of 2 to 5 µM.

Take `CCOC(=O)NS(=O)(=O)c1ccc(N2CCN(C(=O)[C@@H](C)N3CCCc4cc(F)ccc43)CC2)cc1` [Compound 41, (R)-ethyl 4-(4-(2-(6-fluoro-3,4-dihydroquinolin-1(2H)-yl)propanoyl)piperazin-1-yl)phenylsulfonylcarbamate]: the IC50 was over 5 µM.

For `C[C@H](C(=O)Nc1ccc(S(=O)(=O)NC(=O)C2CCC2)cc1)n1ccc2c(F)cccc21` [Compound 42], the IC50 is over 5 µM.

In the case of `CCOC(=O)NS(=O)(=O)c1ccc(NC(=O)[C@@H](C)n2ccc3c(F)cccc32)cc1` [Compound 43, (R)-Ethyl 4-(2-(4-fluoro-1H-indol-1-yl)propanamido)phenylsulfonyl-carbamate], the IC50 was over 5 µM.

On to `COC(=O)NS(=O)(=O)c1ccc(NC(=O)Cn2ccc3c(C#N)cccc32)cc1` [Compound 44], for which the 50% inhibitory concentration (IC50) is over 5 µM.

With `CC(=O)NS(=O)(=O)c1ccc(N)cc1` [Compound 45], the IC50 was over 5 µM.

As for `CCC(=O)NS(=O)(=O)c1ccc(NC(=O)C(C)n2ccc3ccccc32)cc1` (stereo not shown) [Compound 46], the 50% inhibitory concentration (IC50) is over 5 µM.

For the molecule `COC(=O)NS(=O)(=O)c1ccc(NC(=O)[C@@H](C)N2CCCc3ccccc32)cc1` [Compound 47], the IC50 was over 5 µM.

For `COC(=O)NS(=O)(=O)c1ccc(NC(=O)CCc2ccc(OC)cc2)cc1` [Compound 48], the 50% inhibitory concentration (IC50) is over 5 µM.
